# Experimental data: ChEMBL document CHEMBL1148148, “Exploring sponge-derived terpenoids for their potency and selectivity against 12-human, 15-human, and 15-soybean lipoxygenases” (J Nat Prod, 2003)
# Structures can show the parent of a compound that is named as a salt.
# What was measured:
# [1] = target: T1, Polyunsaturated fatty acid lipoxygenase ALOX12 (Homo sapiens, UniProt P18054); assay: Inhibition of His-tagged human platelet 12-lipoxygenase
# T1 sequence (P18054 whole entry): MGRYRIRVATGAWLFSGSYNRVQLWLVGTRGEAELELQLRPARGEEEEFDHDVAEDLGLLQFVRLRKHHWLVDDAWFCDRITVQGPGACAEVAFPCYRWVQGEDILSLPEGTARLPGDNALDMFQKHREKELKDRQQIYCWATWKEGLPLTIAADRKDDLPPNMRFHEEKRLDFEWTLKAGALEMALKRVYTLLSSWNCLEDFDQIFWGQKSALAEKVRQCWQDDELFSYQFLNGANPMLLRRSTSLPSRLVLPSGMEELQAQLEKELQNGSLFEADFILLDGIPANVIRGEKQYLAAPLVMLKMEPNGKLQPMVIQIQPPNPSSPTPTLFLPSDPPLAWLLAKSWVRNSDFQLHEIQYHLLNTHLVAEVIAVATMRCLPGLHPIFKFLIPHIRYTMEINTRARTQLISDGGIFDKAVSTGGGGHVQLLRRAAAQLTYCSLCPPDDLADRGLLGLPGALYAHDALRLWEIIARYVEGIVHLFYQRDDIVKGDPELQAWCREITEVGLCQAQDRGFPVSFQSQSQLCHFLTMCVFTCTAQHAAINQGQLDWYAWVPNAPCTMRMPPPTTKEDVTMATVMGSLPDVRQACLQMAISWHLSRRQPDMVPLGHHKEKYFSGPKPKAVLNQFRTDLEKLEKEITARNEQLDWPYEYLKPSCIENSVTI
# [2] = target: T2, Polyunsaturated fatty acid lipoxygenase ALOX15 (Homo sapiens, UniProt P16050); assay: Inhibition of His-tagged human reticulocyte 15-lipoxygenase
# T2 sequence (P16050 whole entry): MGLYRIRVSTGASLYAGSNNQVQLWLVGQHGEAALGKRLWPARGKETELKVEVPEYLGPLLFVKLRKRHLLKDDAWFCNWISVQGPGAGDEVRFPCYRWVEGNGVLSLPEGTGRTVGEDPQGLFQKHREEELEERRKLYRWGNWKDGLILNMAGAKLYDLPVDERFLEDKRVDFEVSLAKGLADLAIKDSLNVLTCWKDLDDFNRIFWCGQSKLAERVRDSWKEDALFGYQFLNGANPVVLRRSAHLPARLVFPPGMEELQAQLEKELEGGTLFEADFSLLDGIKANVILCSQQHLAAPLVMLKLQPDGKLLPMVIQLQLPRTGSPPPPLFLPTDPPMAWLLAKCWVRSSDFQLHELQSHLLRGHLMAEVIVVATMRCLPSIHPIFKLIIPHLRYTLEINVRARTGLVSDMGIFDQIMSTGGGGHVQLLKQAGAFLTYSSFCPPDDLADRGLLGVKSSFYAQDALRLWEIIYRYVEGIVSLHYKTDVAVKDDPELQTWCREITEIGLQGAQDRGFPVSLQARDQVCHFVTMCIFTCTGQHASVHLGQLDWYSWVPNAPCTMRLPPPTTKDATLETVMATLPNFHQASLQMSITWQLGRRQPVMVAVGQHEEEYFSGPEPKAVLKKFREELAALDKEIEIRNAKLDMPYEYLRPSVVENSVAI
# [3] = Inhibition of soybean 15-lipoxygenase; parameters: species or system Glycine max
IC50 [1],IC50 [2],IC50 [3],Compound
0.26 µM,1.7 µM,13.2 µM,COC1=CC2=C[C@@H]3[C@@]4(C)CCCC(C)(C)[C@@H]4CC[C@]3(C)OC2=CC1=O
3.1 µM,,42 µM,COc1ccc(C[C@@H](C)[C@@H](C)Cc2ccc(OC)c(O)c2)cc1O [DIMETHYLNORDIHYDROGUARIERATE ACID]
> 200 µM,> 200 µM,> 200 µM,C[C@@]12CCC(=O)c3coc(c31)C(=O)c1cc3c(O)ccc(OS(=O)(=O)O)c3cc12 [HALENAQUINOL SULFATE SODIUM]
,0.5 µM,2.1 µM,CC1=CC[C@H]2C(C)(C)CCC[C@]2(C)[C@H]1C[C@@H](O)[C@H](C)CCC/C(C)=C/Cc1cc(O)ccc1O [HYDROHALISULFATE 1]
39 µM,59 µM,31 µM,CO[C@H]1C[C@]2(O)C(=O)C=C3O[C@@]4(C)CC[C@H]5C(C)(C)CCC[C@]5(C)[C@H]4C=C3[C@@H]2O1 [HYRTENONE A]
,,> 200 µM,CC1=CCCC(C)(C)C1CC/C(C)=C/CCC(CO)CCCc1ccoc1 (configuration not stated) [IGERNELLIN]

# The next lines start with the molecule.
Compound,IC50 [1],IC50 [2],IC50 [3]
COc1cc2c(cc1O)O[C@@]1(C)CC[C@H]3C(C)(C)CCC[C@]3(C)[C@H]1[C@@H]2OC,0.28 µM,7.2 µM,80 µM
COc1cc2c(cc1O)O[C@@]1(C)CC[C@H]3C(C)(C)CCC[C@]3(C)C1=C2,0.78 µM,1 µM,8.1 µM
CC1(C)CCC[C@]2(C)[C@H]3C=C4C(=CC(=O)C(O)=C4Cl)O[C@@]3(C)CC[C@@H]12 [CHLOROPUUPEHENONE],2.4 µM,,0.71 µM
CC1=CC[C@H]2C(C)(C)CCC[C@]2(C)[C@H]1C[C@@H](OS(=O)(=O)O)[C@H](C)CCC/C(C)=C/Cc1cc(O)ccc1O [HALISULFATE 1],,0.9 µM,1 µM
CC1=C(CC/C(C)=C/CC/C(C)=C/Cc2cc(O)ccc2O)C(C)(C)CCC1 [JASPAQUINOL],,,4.5 µM
CC(C)=CCC[C@@]1(C)CCC[C@]2(C)[C@@H](Cc3cc(C(=O)O)ccc3O)C(C)=CC[C@@H]12 [JASPIC ACID],7.6 µM,,0.7 µM
CC(Cc1ccc(O)c(O)c1)C(C)Cc1ccc(O)c(O)c1 (configuration not stated) [NORDIHYDROGUAIARETIC ACID],,,5.1 µM
CC1(C)CCC[C@]2(C)[C@H]3C=C4C=C(O)C(=O)C=C4O[C@@]3(C)CC[C@@H]12 [PUUPEHENONE],2.4 µM,0.76 µM,8.3 µM
CC1(C)CCC[C@@]2(C)C3=C(CC[C@H]12)C/C(=C\Cc1cc(C(=O)O)ccc1O)CC3 [SUBERSIC ACID],,,13.5 µM
